# Measured values as given in patent US11932657B2, “Heterocyclic compound” (priority 2018, dated 2024).
# Target: T1, aryl hydrocarbon receptor (AhR) (Homo sapiens, UniProt P35869)
# T1 construct: DRE-Luc HepG2 cells subcultured in a 225 cm^2 flask; endogenous in cells; host or cells: HepG2 (ATCC), stably transfected with the reporter hCYP1A1/pGL4.27 (DRE-Luc HepG2)
# T1 sequence (P35869 11-848): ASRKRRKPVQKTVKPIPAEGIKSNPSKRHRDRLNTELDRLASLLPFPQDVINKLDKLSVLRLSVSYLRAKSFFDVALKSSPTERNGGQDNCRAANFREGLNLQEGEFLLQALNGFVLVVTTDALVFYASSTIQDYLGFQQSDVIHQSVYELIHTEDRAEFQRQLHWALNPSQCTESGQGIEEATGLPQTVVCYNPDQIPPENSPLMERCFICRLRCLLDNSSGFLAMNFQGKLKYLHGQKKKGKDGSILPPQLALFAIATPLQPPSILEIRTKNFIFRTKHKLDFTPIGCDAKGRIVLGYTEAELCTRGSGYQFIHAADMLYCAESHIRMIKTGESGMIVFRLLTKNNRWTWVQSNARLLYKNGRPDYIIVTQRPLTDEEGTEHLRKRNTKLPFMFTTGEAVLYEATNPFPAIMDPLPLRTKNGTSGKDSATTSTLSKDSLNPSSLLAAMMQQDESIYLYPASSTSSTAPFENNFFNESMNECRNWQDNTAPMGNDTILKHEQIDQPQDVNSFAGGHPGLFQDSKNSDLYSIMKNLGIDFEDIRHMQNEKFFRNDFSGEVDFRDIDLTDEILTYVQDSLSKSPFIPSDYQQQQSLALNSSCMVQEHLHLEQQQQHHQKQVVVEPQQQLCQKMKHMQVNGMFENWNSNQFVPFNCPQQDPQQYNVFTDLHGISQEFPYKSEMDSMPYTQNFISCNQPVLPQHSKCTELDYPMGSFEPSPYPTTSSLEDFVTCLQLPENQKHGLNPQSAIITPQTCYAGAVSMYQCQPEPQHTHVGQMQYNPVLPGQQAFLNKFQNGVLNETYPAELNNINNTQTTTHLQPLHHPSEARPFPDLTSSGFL
# Experiment: AhR reporter gene assay (aryl hydrocarbon receptor antagonist activity, DRE-Luc HepG2 cells, TCDD-stimulated luciferase)
# Type: cell-based
# Details: not given
# Procedure: Test Example 1 (Aryl Hydrocarbon Receptor Antagonist Activity)
# An expression vector, hCYP1A1/pGL4.27 was introduced into HepG2 cells (derived from American Type Culture Collection (ATCC)) that were seeded in 6-well plates (#3810-006 (Iwaki)) at 1.2×10^6 cells/well, using Lipofectamine 3000 (#100022050 (Invitrogen)). Referring to Garrion P M et al., Fundam Appl Toxicol, 30, 194 (1996), the vector hCYP1A1/pGL4.27 incorporated the human CYP1A1 promotor region including dioxin responsive element (DRE) region of the AhR binding region into the XhoI-BglII restriction enzyme site of pGL4.27 (#E8451 (Promega)). After 24 hours, medium-1 was replaced, and after 48 hours, the medium-1 containing hygromycin B (200 to 1000 μg/mL) was subjected to drug treatment. Culturing using the medium containing hygromycin B was continued for about 1 month to clone 24 clones showing drug resistance. A cell line showing high reporter activity was selected (DRE-Luc HepG2) from drug resistant lines using as an indicator luciferase activity (Dual-Glo Luciferase substrate, #E297A (Promega)) relative to an AhR agonist, 2,3,7,8-tetrachlorodibenzo-p-dioxin (TCDD) (#ED-901-B (CIL.)).
# DRE-Luc HepG2 cells subcultured in a 225 cm^2 flask (#11-0005 (Iwaki)) were washed with PBS (#1419-144 (Gibco), Lot: 1896207), and thereto was added 8 mL of Trypsin-EDTA (0.05%) (#25300-054 (Gibco)). Thereafter, an excessive liquid was removed from the mixture, and the cells were stood at room temperature for 5 minutes. Thereto was added 10 mL of medium-2, the cells were recovered through a cell strainer (#352350 (Falcon), 70 μm), and the number of cells were then counted using a hemocytometer. A cell suspension was prepared at 3×10^5 cells/mL, 100 μL/well of the cell suspension was seeded into a 96-well white plate (#136101, F96 Microwell (Nunc)), and the cells were then cultured in a CO2 incubator (5% CO2, 37° C.). After 24 hours, the medium was aspirated, and thereto was added 100 μL of an assay medium solution including the compound of the present invention, and the cells were cultured in the CO2 incubator (5% CO2, 37° C.). After 24 hours, 11 μL of an assay medium solution including 5×10^−10 M TCDD (#ED-901-B (CIL.)) was added thereto and the cells were cultured in the CO2 incubator (5% CO2, 37° C.). After 24 hours, 50 μL of a reaction substrate (#E253B, Steady-Glo Luciferase substrate (Promega)) for Firefly Luciferase enzyme reaction was added to each well, and after 5 minute-shaking, the light emission intensity was measured with Wallac ARVO 1420sx (PerkinElmer).
row,SMILES,IC50
1,CC1(C)COc2nc3c(NCCc4c[nH]c5ccccc45)nc(-c4cncc(C(F)F)c4)nc3n21 [Example 101],29 nM
2,CC1(C)CSc2nc3c(NCCc4ccc(O)c(-c5ccccc5)c4)nc(-c4cncc(F)c4)nc3n21 [Example 47],0.38 nM
3,Cc1cncc(-c2nc(NCCc3ccc(O)c(-c4ccccc4F)c3)c3nc4n(c3n2)C(C)(C)CS4)c1 [Example 26],1 nM
4,"CC1(C)COc2nc3c(NCCc4ccc(O)c(-c5ccccc5)c4)nc(-c4cncc(F)c4)nc3n21 [Example 1, 4-[2-[[2-(5-fluoropyridin-3-yl)-8,8-dimethyl-7H-purino[8,9-b][1,3]oxazol-4-yl]amino]ethyl]J-2-phenylphenol]",4.4 nM
5,CC1(C)COc2nc3c(NCCc4ccc(O)c(-c5cccc(F)c5F)c4)nc(-c4cncc(F)c4)nc3n21 [Example 11],6.4 nM
6,CC1(C)CSc2nc3c(NCCc4ccc(O)c(-c5cncc(F)c5)c4)nc(-c4cncc(F)c4)nc3n21 [Example 70],4.6 nM
7,Oc1ccc(CCNc2nc(-c3cncc(F)c3)nc3c2nc2n3CCCO2)cc1-c1ccccc1F [Example 144],4.3 nM
8,CC1(C)CSc2nc3c(NCCc4ccc(O)cc4)nc(-c4cncc(F)c4)nc3n21 [Example 97],19 nM
9,Oc1ccc(CCNc2nc(-c3cncc(F)c3)nc3c2nc2n3CCS2)cc1-c1ccccc1F [Example 142],0.89 nM
10,Oc1ccc(CCNc2nc(-c3cncc(F)c3)nc3c2nc2n3CCCS2)cc1-c1ccccc1F [Example 145],1.3 nM
11,Oc1ccc(CCNc2nc(-c3cncc(F)c3)nc3c2nc2n3CCCCS2)cc1-c1ccccc1F [Example 143],0.6 nM

# System: immortalized megakaryocyte line (SeV2-MKCL)
# Experiment: Platelet production: static culturing of immortalized megakaryocyte line
# Type: cell-based
# Details: compound final concentration 0.1 μM, static culturing 6 to 7 days, control (DMSO) set to 1; platelets = CD41, CD42b and CD42a-positive cells
# Procedure: Test Example 2 (Platelet Production: Static Culturing)
# The immortalized megakaryocyte line (SeV2-MKCL) obtained according to the method described in WO 2016/204256 was washed twice with D-PBS(−) and then cultured in medium not containing doxycycline to terminate forced expression. Culturing was implemented by seeding the cells at 1 mL/well in a 24-well plate (#662160 (Greiner Rio-One)) at a seeding density of 1×10^5 cells/mL followed by static culturing in the medium indicated below.
# The medium was obtained by adding the following components to IMDM serving as the basal medium (concentrations indicate final concentrations).
# Culturing was implemented under conditions of 37° C. and 5% CO2. At the same time, the compound of the present invention (final concentration 0.1 μM) or DMSO (control) was added and cultured for 6 to 7 days. Thereafter, the number of platelets (CD41, CD42b, and CD42a-positive cells) was measured. The measurement method was as shown below. The same procedure was performed with the control.
# A portion of the culture supernatant was harvested 6 to 7 days after culturing to terminate gene expression, and suspended with the following antibodies to stain them. eFluor 450-labeled anti-CD42a antibody (#48-0428-42 (eBioscience)) PE-labeled anti-CD42b antibody (#303906 (BioLegend)) APC-labeled anti-CD41 antibody (#303710 (BioLegend)) The number of platelets was counted using FACSVerse manufactured by BD 30 minutes after the stain reaction. In the measurement of the number of platelets, the number of cells was corrected using Flow-count beads (#7547053 (Beckman Coulter)).
# The number of platelets produced from one megakaryocyte cell was calculated based on the number of platelets in the sample obtained by the FACS measurement, and the result was defined as platelet production efficiency (PLT/MK) and used for evaluation of drug efficacy of the compound. In addition, the specific activity at the time when the platelet production efficiency of the control was set to 1 was indicated as fold increase.
row,SMILES,Static (vs veh): fold increase of platelet production efficiency (PLT/MK)
1,CC1(C)COc2nc3c(NCCc4c[nH]c5ccccc45)nc(-c4cncc(C(F)F)c4)nc3n21 [Example 101],3.8
2,CC1(C)CSc2nc3c(NCCc4ccc(O)c(-c5ccccc5)c4)nc(-c4cncc(F)c4)nc3n21 [Example 47],3.7
3,CC1(C)COc2nc3c(NCCc4c[nH]c5ccccc45)nc(-c4ccccc4F)nc3n21 [Example 113],2.5
4,Cc1cncc(-c2nc(NCCc3ccc(O)c(-c4ccccc4F)c3)c3nc4n(c3n2)C(C)(C)CS4)c1 [Example 26],5.0
5,"CC1(C)COc2nc3c(NCCc4ccc(O)c(-c5ccccc5)c4)nc(-c4cncc(F)c4)nc3n21 [Example 1, 4-[2-[[2-(5-fluoropyridin-3-yl)-8,8-dimethyl-7H-purino[8,9-b][1,3]oxazol-4-yl]amino]ethyl]J-2-phenylphenol]",6.5
6,CC1(C)COc2nc3c(NCCc4ccc(O)c(-c5cncc(C#N)c5)c4)nc(-c4cncc(F)c4)nc3n21 [Example 75],2.7
7,CC1(C)COc2nc3c(NCCc4ccc(O)c(-c5cccc(F)c5F)c4)nc(-c4cncc(F)c4)nc3n21 [Example 11],8.5
8,CC1(C)COc2nc3c(NCCc4ccc(O)cc4)nc(-c4cncc(F)c4)nc3n21 [Example 80],3.4
9,CC1(C)COc2nc3c(NCCc4c[nH]c5ccccc45)nc(-c4ccnc(F)c4)nc3n21 [Example 100],3.5
10,CC1(C)CCOc2nc3c(NCCc4ccc(O)cc4)nc(-c4cncc(F)c4)nc3n21 [Example 90],2.6
11,CC1(C)CSc2nc3c(NCCc4c[nH]c5ccccc45)nc(-c4cncc(F)c4)nc3n21 [Example 95],2.4
12,Fc1cncc(-c2nc(NCCc3c[nH]c4ccccc34)c3nc4n(c3n2)CCCCS4)c1 [Example 107],7.9
13,Cc1cc(CCNc2nc(-c3cncc(F)c3)nc3c2nc2n3C(C)(C)CO2)ccc1O [Example 51],2.6
14,Cc1cncc(-c2nc(NCCc3c[nH]c4ccccc34)c3nc4n(c3n2)C(C)(C)CO4)c1 [Example 83],5.8
15,Fc1cncc(-c2nc(NCCc3c[nH]c4ccccc34)c3nc4n(c3n2)CCS4)c1 [Example 105],8.2
16,CC1(C)COc2nc3c(NCCc4ccc5[nH]ccc5c4)nc(-c4cncc(F)c4)nc3n21 [Example 103],3.1
17,CC1(C)CCOc2nc3c(NCCc4c[nH]c5ccccc45)nc(-c4cncc(F)c4)nc3n21 [Example 89],5.0
18,CC1(C)COc2nc3c(NCCc4c[nH]c5ccccc45)nc(-c4ccc(F)cc4)nc3n21 [Example 114],2.2
19,"CC1(C)COc2nc3c(NCCc4ccc(O)c(-c5ccc(O)cc5)c4)nc(-c4cncc(F)c4)nc3n21 [Example 19, 4-[2-[[2-(5-fluoropyridin-3-yl)-8,8-dimethyl-7H-purino[8,9-b][1,3]oxazol-4-yl]amino]ethyl]-2-(4-hydroxyphenyl)phenol]",2.8
20,C[C@@H]1CSc2nc3c(NCCc4c[nH]c5ccccc45)nc(-c4cncc(F)c4)nc3n21 [Example 102],4.5
21,CC1(C)COc2nc3c(NCCc4c[nH]c5ccccc45)nc(-c4ccc(F)c(F)c4)nc3n21 [Example 88],3.1
22,Fc1cncc(-c2nc(NCCc3c[nH]c4ccccc34)c3nc4n(c3n2)CCCO4)c1 [Example 84],13
23,CC1(C)COc2nc3c(NCCc4c[nH]c5ccccc45)nc(-c4ccccc4)nc3n21 [Example 116],2.5
24,C[C@H]1CSc2nc3c(NCCc4c[nH]c5ccccc45)nc(-c4cncc(F)c4)nc3n21 [Example 106],6.9
25,Cc1[nH]c2ccccc2c1CCNc1nc(-c2cncc(F)c2)nc2c1nc1n2C(C)(C)CO1 [Example 104],4.6
26,CC1(C)COc2nc3c(NCCc4c[nH]c5ccccc45)nc(-c4cncc(F)c4)nc3n21 [Example 82],5.0
